Experimental data taken from patent US7968556B2, “Heteroaryl compounds, compositions thereof, and methods of treatment therewith” (Signal Pharmaceuticals, LLC, priority 2006, dated 2011).

In the case of COC(=O)c1cccc(-c2nc(C(N)=O)c3[nH]c(=O)n(-c4ccccc4OC)c3n2)c1 [Compound 61, Methyl 3-(6-carbamoyl-9-(2-methoxyphenyl)-8-oxo-8,9-dihydro-7H-purin-2-yl)benzoate], the melting point is reported as 265 to 266 °C.
COc1ccccc1-n1c(=O)[nH]c2c(C(N)=O)nc(N[C@H]3CCNC3)nc21 [Compound 106, (S)-9-(2-Methoxyphenyl)-8-oxo-2-(pyrrolidin-3-ylamino)-8,9-dihydro-7H-purine-6-carboxamide] gave a melting point of over 400 °C.
CC(C)(C)c1ccccc1-n1c(=O)[nH]c2c(C(N)=O)nc(-c3cccc(O)c3)nc21 [Compound 125, 9-(2-tert-Butylphenyl)-2-(3-hydroxyphenyl)-8-oxo-8,9-dihydro-7H-purine-6-carboxamide] showed a melting point of 294 to 297 °C.
Work on NC(=O)c1nc(-c2cccc(O)c2)nc2c1[nH]c(=O)n2[C@@H]1CCOC1 [Compound 162, (R)-2-(3-Hydroxyphenyl)-8-oxo-9-(tetrahydrofuran-3-yl)-8,9-dihydro-7H-purine-6-carboxamide] yielded a melting point of 353 to 355 °C.
With CC(C)c1ccccc1-n1c(=O)[nH]c2c(C(N)=O)nc(-c3ccc4nc[nH]c4c3)nc21 [Compound 127, 2-(1H-Benzo[d]imidazol-6-yl)-9-(2-isopropylphenyl)-8-oxo-8,9-dihydro-7H-purine-6-carboxamide] the melting point was 275 °C (dec.).
Work on CO[C@H]1CC[C@@H](n2c(=O)[nH]c3c(C(N)=O)nc(-c4cccc(O)c4)nc32)CC1 [Compound 144, 9-(cis-4-Methoxycyclohexyl)-2-(3-hydroxyphenyl)-8-oxo-8,9-dihydro-7H-purine-6-carboxamide] yielded a melting point of 345 to 347 °C.
COc1ccccc1-n1cnc2c(C(N)=O)nc(-c3ccccc3O)nc21 [Compound 70, 2-(2-Hydroxyphenyl)-9-(2-methoxyphenyl)purine-6-carboxamide] gave a melting point of 278 to 280 °C.
Work on COc1ccccc1-n1c(=O)[nH]c2c(C(N)=O)nc(-c3cccc4[nH]ncc34)nc21 [Compound 128, 2-(1H-Indazol-4-yl)-9-(2-methoxyphenyl)-8-oxo-8,9-dihydro-7H-purine-6-carboxamide] yielded a melting point of 280 °C.
COc1ccccc1-n1c(=O)[nH]c2c(C(N)=O)nc(-n3cnc4ccccc43)nc21 [Compound 134, 2-(1H-Benzo[d]imidazol-1-yl)-9-(2-methoxyphenyl)-8-oxo-8,9-dihydro-7H-purine-6-carboxamide] showed a melting point of 318 to 319 °C.
For NC(=O)c1nc(-c2ccc(-c3nc[nH]n3)cc2)nc2c1[nH]c(=O)n2C1CCCCC1 [Compound 146, 2-(4-(1H-1,2,4-Triazol-3-yl)phenyl)-9-cyclohexyl-8-oxo-8,9-dihydro-7H-purine-6-carboxamide], the melting point was 375 °C (dec.).
With COc1ccccc1-n1c(=O)[nH]c2c(C(N)=O)nc(-c3cnc4nc[nH]c4c3)nc21 [Compound 130, 2-(1H-Imidazo[4,5-b]pyridin-6-yl)-9-(2-methoxyphenyl)-8-oxo-8,9-dihydro-7H-purine-6-carboxamide] the melting point was 358 °C (dec.).
With CO[C@H]1CC[C@@H](n2c(=O)[nH]c3c(C(N)=O)nc(-c4cnc5nc[nH]c5c4)nc32)CC1 [Compound 168, 2-(1H-Imidazo[4,5-b]pyridin-6-yl)-9-(cis-4-methoxycyclohexyl)-8-oxo-8,9-dihydro-7H-purine-6-carboxamide] the melting point was 360 °C (dec.).
For COc1ccccc1-n1c(=O)[nH]c2c(C(N)=O)nc(-c3ccc(C#N)cc3)nc21 [Compound 59, 2-(4-Cyano-phenyl)-9-(2-methoxy-phenyl)-8-oxo-8,9-dihydro-7H-purine-6-carboxamide], the melting point was 335 to 338 °C.
In the case of CO[C@H]1CC[C@@H](n2c(=O)[nH]c3c(C(N)=O)nc(-c4ccc5nc[nH]c5c4)nc32)CC1 [Compound 167, 2-(1H-Benzo[d]imidazol-6-yl)-9-(cis-4-methoxycyclohexyl)-8-oxo-8,9-dihydro-7H-purine-6-carboxamide], the melting point is reported as 345 °C (dec.).
